Experiments:
[1] = molecular target: Tb-labeled inactive PDGFRβ (Homo sapiens (Human), UniProt P09619); experiment: PDGFRβ LanthaScreen Assay; assay type: binding; conditions: read-out: PDGFR Lantha IC50
VEGFR2, unphosphorylated = VEGFR2, unphosphorylated (Homo sapiens (Human), UniProt P35968); experiment: VEGFR ADP GLO Assay; assay type: biochemical
Chain of VEGFR2, unphosphorylated (P35968 20-1356): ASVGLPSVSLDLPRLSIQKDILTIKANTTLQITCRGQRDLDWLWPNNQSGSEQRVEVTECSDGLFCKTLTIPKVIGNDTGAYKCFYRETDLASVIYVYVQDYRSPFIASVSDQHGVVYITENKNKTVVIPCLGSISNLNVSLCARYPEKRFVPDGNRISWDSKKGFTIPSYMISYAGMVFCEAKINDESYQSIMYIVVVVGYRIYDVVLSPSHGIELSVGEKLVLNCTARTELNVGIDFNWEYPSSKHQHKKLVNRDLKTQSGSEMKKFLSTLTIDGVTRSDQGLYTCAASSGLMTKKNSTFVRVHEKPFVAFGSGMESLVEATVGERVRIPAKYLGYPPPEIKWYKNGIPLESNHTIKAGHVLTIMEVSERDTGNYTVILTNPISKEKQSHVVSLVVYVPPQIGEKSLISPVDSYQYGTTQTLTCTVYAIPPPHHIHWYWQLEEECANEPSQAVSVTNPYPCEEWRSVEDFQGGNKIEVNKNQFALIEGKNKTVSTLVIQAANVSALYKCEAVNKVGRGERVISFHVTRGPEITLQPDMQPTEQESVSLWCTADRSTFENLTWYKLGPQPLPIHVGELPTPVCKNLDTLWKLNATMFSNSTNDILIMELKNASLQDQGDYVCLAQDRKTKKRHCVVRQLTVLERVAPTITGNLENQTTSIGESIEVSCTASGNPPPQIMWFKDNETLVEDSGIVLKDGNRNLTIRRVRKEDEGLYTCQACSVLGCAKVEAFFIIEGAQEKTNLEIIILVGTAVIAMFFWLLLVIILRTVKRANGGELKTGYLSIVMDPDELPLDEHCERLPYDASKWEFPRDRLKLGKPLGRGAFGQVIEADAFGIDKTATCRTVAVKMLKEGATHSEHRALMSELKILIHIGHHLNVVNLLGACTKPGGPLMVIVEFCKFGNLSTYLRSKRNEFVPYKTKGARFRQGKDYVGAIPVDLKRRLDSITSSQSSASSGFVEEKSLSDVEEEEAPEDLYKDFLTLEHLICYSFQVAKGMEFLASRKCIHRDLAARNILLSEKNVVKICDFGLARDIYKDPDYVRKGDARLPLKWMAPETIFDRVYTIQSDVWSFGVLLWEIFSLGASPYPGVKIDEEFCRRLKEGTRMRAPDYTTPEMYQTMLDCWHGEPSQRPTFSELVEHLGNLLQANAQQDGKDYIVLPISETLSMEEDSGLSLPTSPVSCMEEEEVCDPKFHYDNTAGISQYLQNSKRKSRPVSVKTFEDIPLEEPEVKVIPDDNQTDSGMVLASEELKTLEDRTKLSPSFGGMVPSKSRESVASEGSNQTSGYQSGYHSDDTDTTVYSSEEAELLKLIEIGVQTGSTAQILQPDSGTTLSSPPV

Chain of Tb-labeled inactive PDGFRβ (P09619 33-1106): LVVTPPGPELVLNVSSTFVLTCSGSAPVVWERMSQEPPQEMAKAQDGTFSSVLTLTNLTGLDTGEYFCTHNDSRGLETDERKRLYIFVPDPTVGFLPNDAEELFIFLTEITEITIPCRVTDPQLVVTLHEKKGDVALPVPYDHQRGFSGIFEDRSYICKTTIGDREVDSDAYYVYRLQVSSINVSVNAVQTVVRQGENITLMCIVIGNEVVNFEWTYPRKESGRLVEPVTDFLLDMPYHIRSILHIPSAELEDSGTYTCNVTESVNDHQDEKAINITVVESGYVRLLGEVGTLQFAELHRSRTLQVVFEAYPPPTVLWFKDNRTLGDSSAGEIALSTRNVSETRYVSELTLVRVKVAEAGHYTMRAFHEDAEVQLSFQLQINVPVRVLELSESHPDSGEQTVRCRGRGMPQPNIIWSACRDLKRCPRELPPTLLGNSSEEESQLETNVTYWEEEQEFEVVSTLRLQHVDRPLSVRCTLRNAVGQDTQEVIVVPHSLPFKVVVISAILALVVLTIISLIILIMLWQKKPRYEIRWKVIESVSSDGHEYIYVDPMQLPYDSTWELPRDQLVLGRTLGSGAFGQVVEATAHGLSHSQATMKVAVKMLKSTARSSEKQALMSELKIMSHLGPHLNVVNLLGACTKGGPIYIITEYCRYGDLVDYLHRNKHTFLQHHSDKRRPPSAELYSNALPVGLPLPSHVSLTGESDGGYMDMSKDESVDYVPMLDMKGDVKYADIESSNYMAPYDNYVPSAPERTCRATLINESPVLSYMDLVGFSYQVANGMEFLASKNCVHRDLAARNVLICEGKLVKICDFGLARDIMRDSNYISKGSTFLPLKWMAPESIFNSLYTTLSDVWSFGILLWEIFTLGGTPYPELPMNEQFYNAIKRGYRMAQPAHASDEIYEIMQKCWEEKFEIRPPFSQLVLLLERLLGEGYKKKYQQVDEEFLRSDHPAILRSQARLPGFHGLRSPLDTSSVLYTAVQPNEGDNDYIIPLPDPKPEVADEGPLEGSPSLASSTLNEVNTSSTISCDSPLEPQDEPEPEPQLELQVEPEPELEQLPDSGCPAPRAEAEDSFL

Row | Structure (SMILES) | IC50 [1] [nM] | IC50 (VEGFR2, unphosphorylated) [nM]
1 | Cc1ncc(NC(=O)CN2CC(C)(C)C2)cc1NC(=O)c1cnn2cc(-c3ccnc(N4CCOCC4)c3)sc12 [Example 284, N-(5-(2-(3,3-dimethylazetidin-1-yl)acetamido)-2-methylpyridin-3-yl)-2-(2-morpholinopyridin-4-yl)pyrazolo[5,1-b]thiazole-7-carboxamide] | 2.6 | > 7500
2 | Cc1ncc(NC(=O)CN2CCCC(O)C2)cc1NC(=O)c1cnn2cc(-c3cnn(C)c3)sc12 (stereo not shown) [Example 303, N-(5-(2-(3-hydroxypiperidin-1-yl)acetamido)-2-methylpyridin-3-yl)-2-(1-methyl-1H-pyrazol-4-yl)pyrazolo[5,1-b]thiazole-7-carboxamide] | 5.8 | > 7500
3 | COc1ncccc1-c1cn2ncc(C(=O)Nc3cc(NC(=O)OCC(C)N4CCCC4)cnc3C)c2s1 (stereo not shown) [Example 255, 2-(pyrrolidin-1-yl)propyl (5-(2-(2-methoxypyridin-3-yl)pyrazolo[5,1-b]thiazole-7-carboxamido)-6-methylpyridin-3-yl)carbamate] | 1.9 | > 7500
4 | COc1ncccc1-c1cn2ncc(C(=O)Nc3cc(C(=O)NCCN4CCC[C@@H]4C)cnc3C)c2s1 [Example 301, (S)-2-(2-methoxypyridin-3-yl)-N-(2-methyl-5-((2-(2-methylpyrrolidin-1-yl)ethyl)carbamoyl)pyridin-3-yl)pyrazolo[5,1-b]thiazole-7-carboxamide] | 1.4 | > 7500
5 | Cc1ncc(NC(=O)CN2CCC3(CCCO3)C2)cc1NC(=O)c1cnn2cc(-c3cnn(C)c3)sc12 (stereo not shown) [Example 21, N-(5-(2-(1-oxa-7-azaspiro[4.4]nonan-7-yl)acetamido)-2-methylpyridin-3-yl)-2-(1-methyl-1H-pyrazol-4-yl)pyrazolo[5,1-b]thiazole-7-carboxamide] | 5.7 | > 7500
6 | COCCn1cc(-c2cn3ncc(C(=O)Nc4cc(NC(=O)CN5CC(C)(C)C5)cnc4C)c3s2)cn1 [Example 261, N-(5-(2-(3,3-dimethylazetidin-1-yl)acetamido)-2-methylpyridin-3-yl)-2-(1-(2-methoxyethyl)-1H-pyrazol-4-yl)pyrazolo[5,1-b]thiazole-7-carboxamide] | 4.9 | > 7500
7 | Cc1ncc(NC(=O)CN2CC(C)(C)C2)cc1NC(=O)c1cnn2cc(-c3cnn(CC#N)c3)sc12 [Example 266, 2-(1-(cyanomethyl)-1H-pyrazol-4-yl)-N-(5-(2-(3,3-dimethylazetidin-1-yl)acetamido)-2-methylpyridin-3-yl)pyrazolo[5,1-b]thiazole-7-carboxamide] | 11.1 | > 7500
8 | Cc1ncc(NC(=O)CN2CC(C)(C)C2)cc1NC(=O)c1cnn2cc(-c3cnn(CCO)c3)sc12 [Example 290, N-(5-(2-(3,3-dimethylazetidin-1-yl)acetamido)-2-methylpyridin-3-yl)-2-(1-(2-hydroxyethyl)-1H-pyrazol-4-yl)pyrazolo[5,1-b]thiazole-7-carboxamide] | 3.3 | > 7500
9 | Cc1ncc(NC(=O)CN(C)C2CCOCC2)cc1NC(=O)c1cnn2cc(-c3cnn(C4CC4)c3)sc12 [Example 294, 2-(1-cyclopropyl-1H-pyrazol-4-yl)-N-(2-methyl-5-(2-(methyl(tetrahydro-2H-pyran-4-yl)amino)acetamido)pyridin-3-yl)pyrazolo[5,1-b]thiazole-7-carboxamide] | 5.1 | > 7500
10 | Cc1ncc(NC(=O)CN2CC(C)(C)C2)cc1NC(=O)c1cnn2cc(-c3ccc(CO)s3)sc12 [Example 278, N-(5-(2-(3,3-dimethylazetidin-1-yl)acetamido)-2-methylpyridin-3-yl)-2-(5-(hydroxymethyl)thiophen-2-yl)pyrazolo[5,1-b]thiazole-7-carboxamide] | 1.4 | > 7500
11 | Cc1ncc(NC(=O)CN(C)C2CCOCC2)cc1NC(=O)c1cnn2cc(-c3cnn(C4CCC4)c3)sc12 [Example 296, 2-(1-cyclobutyl-1H-pyrazol-4-yl)-N-(2-methyl-5-(2-(methyl(tetrahydro-2H-pyran-4-yl)amino)acetamido)pyridin-3-yl)pyrazolo[5,1-b]thiazole-7-carboxamide] | 3.7 | > 7500
12 | Cc1ncc(NC(=O)CN2CC(C)(C)C2)cc1NC(=O)c1cnn2cc(-c3cnn(CC(N)=O)c3)sc12 [Example 267, 2-(1-(2-amino-2-oxoethyl)-1H-pyrazol-4-yl)-N-(5-(2-(3,3-dimethylazetidin-1-yl)acetamido)-2-methylpyridin-3-yl)pyrazolo[5,1-b]thiazole-7-carboxamide] | 13.7 | > 7500
13 | Cc1ncc(NC(=O)[C@@H]2C[C@H](C)CN2C)cc1NC(=O)c1cnn2cc(-c3cccnc3O)sc12 [Example 316, N-(5-((2S,4S)-1,4-dimethylpyrrolidine-2-carboxamido)-2-methylpyridin-3-yl)-2-(2-hydroxypyridin-3-yl)pyrazolo[5,1-b]thiazole-7-carboxamide] | 21.7 | > 7500
14 | Cc1ncc(NC(=O)CN2CCCC2)cc1NC(=O)c1cnn2cc(-c3cccnc3O)sc12 [Example 312, 2-(2-hydroxypyridin-3-yl)-N-(2-methyl-5-(2-(pyrrolidin-1-yl)acetamido)pyridin-3-yl)pyrazolo[5,1-b]thiazole-7-carboxamide] | 39.2 | > 7500
15 | Cc1ncc(NC(=O)CN2CC(C)(C)C2)cc1NC(=O)c1cnn2cc(-c3cnn(C4CS(=O)(=O)C4)c3)sc12 [Example 262, N-(5-(2-(3,3-dimethylazetidin-1-yl)acetamido)-2-methylpyridin-3-yl)-2-(1-(1,1-dioxidothietan-3-yl)-1H-pyrazol-4-yl)pyrazolo[5,1-b]thiazole-7-carboxamide] | 6.1 | > 7500
16 | Cc1ncc(NC(=O)CN2CC(C)(C)C2)cc1NC(=O)c1cnn2cc(-c3cccc4c3cnn4C)sc12 [Example 286, N-(5-(2-(3,3-dimethylazetidin-1-yl)acetamido)-2-methylpyridin-3-yl)-2-(1-methyl-1H-indazol-4-yl)pyrazolo[5,1-b]thiazole-7-carboxamide] | 1 | > 2500
17 | Cc1ncc(NC(=O)CN2CC(C)(C)C2)cc1NC(=O)c1cnn2cc(-c3cnn(CS(C)(=O)=O)c3)sc12 [Example 265, N-(5-(2-(3,3-dimethylazetidin-1-yl)acetamido)-2-methylpyridin-3-yl)-2-(1-((methylsulfonyl)methyl)-1H-pyrazol-4-yl)pyrazolo[5,1-b]thiazole-7-carboxamide] | 8.7 | > 7500
18 | Cc1ncc(NC(=O)[C@@H]2C[C@@H](C)CN2C)cc1NC(=O)c1cnn2cc(-c3cnn(C)c3)sc12 [Example 304, N-(5-((2S,4R)-1,4-dimethylpyrrolidine-2-carboxamido)-2-methylpyridin-3-yl)-2-(1-methyl-1H-pyrazol-4-yl)pyrazolo[5,1-b]thiazole-7-carboxamide] | 5.6 | > 7500
19 | COc1ncccc1-c1cn2ncc(C(=O)Nc3cc(NC(=O)CN4CCOCC45CCC5)cnc3C)c2s1 [Example 310, N-(5-(2-(8-oxa-5-azaspiro[3.5]nonan-5-yl)acetamido)-2-methylpyridin-3-yl)-2-(2-methoxypyridin-3-yl)pyrazolo[5,1-b]thiazole-7-carboxamide] | 1.4 | > 7500
20 | Cc1ncc(NC(=O)CN2CC(C)(C)C2)cc1NC(=O)c1cnn2cc(-c3cc[nH]c3)sc12 [Example 285, N-(5-(2-(3,3-dimethylazetidin-1-yl)acetamido)-2-methylpyridin-3-yl)-2-(1H-pyrrol-3-yl)pyrazolo[5,1-b]thiazole-7-carboxamide] | 1.3 | > 7500
21 | Cc1ncc(NC(=O)CN2CCCC23COC3)cc1NC(=O)c1cnn2cc(-c3cnn(C)c3)sc12 [Example 20, N-(5-(2-(2-oxa-5-azaspiro[3.4]octan-5-yl)acetamido)-2-methyl-pyridin-3-yl)-2-(1-methyl-1H-pyrazol-4-yl)pyrazolo[5,1-b]thiazole-7-carboxamide] | 8.2 | > 7500
22 | Cc1ncc(NC(=O)CN2CC(C)(C)C2)cc1NC(=O)c1cnn2cc(-c3cnc4[nH]ncc4c3)sc12 [Example 288, N-(5-(2-(3,3-dimethylazetidin-1-yl)acetamido)-2-methylpyridin-3-yl)-2-(1H-pyrazolo[3,4-b]pyridin-5-yl)pyrazolo[5,1-b]thiazole-7-carboxamide] | 11.5 | > 2500
23 | COCCn1cc(-c2cn3ncc(C(=O)Nc4cc(NC(=O)CN5CCC[C@H]5C)cnc4C)c3s2)cn1 [Example 330, (R)-2-(1-(2-methoxyethyl)-1H-pyrazol-4-yl)-N-(2-methyl-5-(2-(2-methylpyrrolidin-1-yl)acetamido)pyridin-3-yl)pyrazolo[5,1-b]thiazole-7-carboxamide] | 9.6 | > 7500
24 | CC(=O)Nc1cncc(-c2cn3ncc(C(=O)Nc4cc(NC(=O)CN5CC(C)(C)C5)cnc4C)c3s2)c1 [Example 277, 2-(5-acetamidopyridin-3-yl)-N-(5-(2-(3,3-dimethylazetidin-1-yl)acetamido)-2-methylpyridin-3-yl)pyrazolo[5,1-b]thiazole-7-carboxamide] | 5.7 | > 2500
25 | CNC(=O)c1cc(-c2cn3ncc(C(=O)Nc4cc(NC(=O)CN5CC(C)(C)C5)cnc4C)c3s2)ccn1 [Example 274, N-(5-(2-(3,3-dimethylazetidin-1-yl)acetamido)-2-methylpyridin-3-yl)-2-(2-(methylcarbamoyl)pyridin-4-yl)pyrazolo[5,1-b]thiazole-7-carboxamide] | 21.4 | > 7500
26 | Cc1ncc(NC(=O)CN2CC(C)(C)C2)cc1NC(=O)c1cnn2cc(-c3ccsc3)sc12 [Example 282, N-(5-(2-(3,3-dimethylazetidin-1-yl)acetamido)-2-methylpyridin-3-yl)-2-(thiophen-3-yl)pyrazolo[5,1-b]thiazole-7-carboxamide] | 1.2 | 2680

Source: patent US20240109917A1 (ACTELION PHARMACEUTICALS LTD, priority 2020, published 2024)
